According to patent US12048691B2 (SPERO THERAPEUTICS, INC., priority 2020, dated 2024):
In brackets after ≈: the same amount, converted by molar mass. Like-named read-outs stand apart in the source and are kept apart here.

How the values were obtained:
[1] = tested on: bacteremia secondary to cUTI/AP; assay: Efficacy in patients with cUTI or acute pyelonephritis and associated bacteremia; type: in vivo, human
Source text: The objective of this analysis was to evaluate the efficacy of TBP-PI-HBr in the subset of patients with associated bacteremia from a study of patients with either cUTI or acute pyelonephritis.

E. coli [2] = assay: Susceptibility of E. coli from urinary tract infections, 18 EU countries 2020 (STEWARD); type: cell-based
Experimental: The study assessed the prevalence of resistance and evaluated the activity of oral tebipenem (TBP) and comparators against EC from urinary tract infections.
Results were interpreted using EUCAST criteria. […] ESBL phenotypes were determined by CLSI criteria and sequenced to identify CTX-M-15 genotype and clonal complex ST131.

[3] = tested on: Methicillin-susceptible Staphylococcus aureus (MSSA); assay: Broth microdilution against Gram-positive clinical isolates; type: cell-based; conditions: Staphylococcus aureus, 489 isolates
Experimental: (§1) The purpose of this study was to investigate the in vitro activity of tebipenem and comparator agents, including ertapenem and meropenem, against a recent collection of Gram-positive isolates associated with clinical infections. The susceptibility of 580 Gram-positive organisms were tested, including: Methicillin-susceptible Staphylococcus aureus (MSSA, 489 isolates), Methicillin-susceptible Staphylococcus epidermidis (MSSE, 31), other methicillin-susceptible coagulase-negative staphylococci (MSCONS, 29), and Vancomycin-susceptible Enterococcus faecalis (31). Bacterial species were identified by JMI Laboratories using standard microbiology methods and matrix-assisted laser desorption ionization-time of flight mass spectrometry (Bruker Daltonics, Bremen, Germany). The isolates were collected in 2018 and 2019 as part of the SENTRY surveillance program and selected to be representative of these species with 45.0% from the United States, 44.3% from Europe, 5.3% from the Asia-Pacific region, and 5.3% from Latin America. Isolates are primarily from pneumonia in hospitalized patients (498 isolates; 85.9%), urinary tract infections (42 isolates; 7.2%), and bloodstream infections (38 isolates; 6.6%). Isolates were tested in a central laboratory (JMI Laboratories) for antimicrobial susceptibility using the CLSI M07 (2018) reference broth microdilution method. JMI Laboratories produced frozen-form 96-well panels and used cation-adjusted Mueller-Hinton broth (CA-MHB) as the testing medium. All categorical interpretations used CLSI M100 (2021) and EUCAST v10.0 (2021) breakpoint criteria, where published. Quality control organisms include Escherichia coli ATCC 25922, Escherichia coli ATCC 35218, Enterococcus faecalis ATCC 29212, Pseudomonas aeruginosa ATCC 27853, and Staphylococcus aureus ATCC 29213 were tested concurrently with clinical isolates.

[4] = tested on: Methicillin-susceptible Staphylococcus epidermidis (MSSE); assay: as above; type: cell-based; conditions: Staphylococcus epidermidis, 31 isolates
Experimental: as §1

[5] = tested on: Vancomycin-susceptible Enterococcus faecalis; assay: as above; type: cell-based; conditions: Enterococcus faecalis; E. faecalis, 31 isolates
Experimental: as §1

[6] = tested on: AmpC production in P. aeruginosa; assay: AmpC induction (nitrocefin hydrolysis after drug exposure); type: cell-based
Experimental: (§2) AmpC induction was determined as follows. Baseline MIC values were determined by broth microdilution method, as described above, for 9 Gram-negative isolates with basal expression of ampC. These isolates were cultured overnight on blood agar plates. A standardized inoculum made from fresh overnight plate cultures was added to flasks containing 50 mL of Luria-Bertani (LB) broth and incubated by shaking at 37° C. to OD600 of 0.3. […] These cultures were incubated under shaking conditions. A 40 mL aliquot of bacterial cultures was sampled at time 0 and 2 hours after drug exposures. Each sample aliquot was harvested by centrifugation and the supernatant was discarded.
(§3) Protein crude extract preparations were made in 200 μL of BugBusterR (Novagen, Darmstadt, Germany) per manufacturer instructions and cell debris was removed by centrifugation. Protein concentrations were determined in each crude extract by standard methodologies.
(§4) AmpC induction was measured by the intensity of β-lactamase hydrolytic activity against 0.1 mM nitrocefin in 0.1 M phosphate buffer at pH 7.0 using spectrophotometry at 482 nm (Δ absorbance/minute/mg of protein). The drug exposure conditions that caused a >4-fold increase in hydrolysis activity compared to the baseline were subjected to postinduction experiments. Briefly, cells were grown under the same conditions as before and tested for susceptibility by broth microdilution.

[7] = tested on: AmpC production in Enterobacterales; assay: as above; type: cell-based; conditions: tebipenem/imipenem except for C. koseri and S. marcescens
Experimental: as §2, §3, §4

E. coli [8] = assay: Broth microdilution against US UTI pathogens 2019-2020; type: cell-based; conditions: E. coli (2,339); cefuroxime: oral breakpoint
Experimental: (§5) This study assessed the in vitro activity of tebipenem and comparator agents against Enterobacterales (ENT) responsible for UTIs in the US during 2019-2020. A total of 3,576 ENT recovered from urine samples during the 2019-2020 STEWARD Surveillance Program were included in the study. Isolates were collected from medical centers in all 9 US Census Regions and were centrally tested for susceptibility by reference broth microdilution method. MIC interpretation was performed based on CLSI criteria.

K. pneumoniae = assay: as above; type: cell-based; conditions: K. pneumoniae (511)
Experimental: as §5

P. mirabilis = assay: as above; type: cell-based; conditions: P. mirabilis (235), cefuroxime: oral breakpoint
Experimental: as §5

Enterobacterales (ENT) = assay: as above; type: cell-based
Experimental: as §5

[9] = tested on: Enterobacterales overproducing AmpC; assay: Broth microdilution susceptibility of isolates overexpressing AmpC; type: cell-based
Experimental: Frozen-form broth microdilution panels were manufactured by JMI Laboratories and contained cation-adjusted Mueller-Hinton broth. Quality assurance was performed by sterility checks, colony counts, and testing CLSI recommended quality control reference strains.

C[C@@H](O)[C@H]1C(=O)N2C(C(=O)O)=C(S[C@@H]3CN[C@H](C(=O)Nc4cccc(C(=O)O)c4)C3)[C@H](C)[C@H]12 [Ertapenem, ertapenem] was tested, and the Clinical cure rate ([1]; EOT) was 100%, the Clinical cure rate ([1]; TOC) was 94.3% and the Overall response rate ([1]; end-of-treatment (EOT)) was 96.2%. For the same molecule, the Clinical cure rate ([1]; late-follow-up (LFU) visit) was “approximately 89%”, the Overall response rate ([1]; test-of-cure (TOC)) was 66.0% and the MIC90 (E. coli [2]; Escherichia coli, all E. coli (764) from UTIs) was 0.03 µg/mL (≈ 0.0631 µM). The Susceptibility rate (E. coli [2]; all E. coli, EUCAST criteria) was 99.9%, the MIC90 [3] was 0.25 µg/mL (≈ 0.526 µM) and the MIC90 [4] was 0.5 µg/mL (≈ 1.05 µM). For the same molecule, the MIC90 [5] was over 8 µg/mL, the “effect of exposure on production of AmpC” value [6] was “not observed” and the “effect of exposure on production of AmpC” value [7] was “did not seem to affect production of AmpC”. For the same molecule, the “% susceptible; CLSI” value (E. coli [8]) was “(99.6) %”, the “% susceptible; CLSI” value (K. pneumoniae; cefuroxime: oral breakpoint) was “(96.3) %” and the MIC50 (K. pneumoniae; Klebsiella pneumoniae, read-out: MIC50) was at most 8 µg/mL. For the same molecule, the “% susceptible; CLSI” value (P. mirabilis) was “(100.0) %”, the “% susceptible; CLSI” value (P. mirabilis; listed as ERT) was 100.0% and the MIC50 (Enterobacterales (ENT)) was at most 8 µg/mL. For the same molecule, the MIC90 (Enterobacterales (ENT); All (3,567)) was 30 µg/mL (≈ 63.1 µM), the “% susceptible; CLSI” value (Enterobacterales (ENT); All (3,567), cefuroxime: oral breakpoint) was “(98.5) %” and the MIC90 (Enterobacterales (ENT); against ENT, EC, and KPN) was 0.03 µg/mL (≈ 0.0631 µM). The MIC50 [9] was 0.12 µg/mL (≈ 0.252 µM), the MIC90 [9] was 2 µg/mL (≈ 4.21 µM) and the “CLSI %1” value ([9]; Enterobacterales (36)) was 8.3%. For the same molecule, the “CLSI % R” value ([9]; Enterobacterales (36)) was 11.1%, the “CLSI % S” value ([9]; Enterobacterales (36)) was 80.6% and the MIC50 ([9]; Enterobacterales (36)) was 0.12 μ/ml. It also gave an MIC90 ([9]; Enterobacterales (36)) of 2 μ/ml.
